The test system of assay [1] is BHK-21 cells (hamster renal fibroblasts). Kind of assay: Growth of BHK-21 cells, time course. Format: cell-based.
The subject of assay [2] is BHK-21 cells. Kind of assay: Inhibitory effects of steroids on BHK-21 cells. The conditions noted are these: for activity at 0.5 µg/mL / activity at 1 µg/mL / activity at 5 µg/mL / activity at 25 µg/mL / activity at 50 µg/mL: Mesocricetus auratus, read-out: % of control cell numbers. The assay is classed as cell-based, hamster.
Assay [3] concerns BHK-21 cells. Kind of assay: Effects of WHS on BHK-21 cells in the presence of steroids. The assay is classed as cell-based, hamster. The conditions noted are these: steroid 50 μg/ml alone.
The subject of a further assay is mouse fibroblasts. As to conditions: with protoplasmic vacuolation; cited from earlier work.
In another assay the test system is epidermal cell. As to conditions: cited from earlier work.

Read-outs that look alike come from different tables or passages of the source.

For the molecule PDGF, the “saturation density of the cells” value in assay [1] (Eagle's MEM containing 10% calf serum, 37° C.) was “increased the saturation density of the cells”.

With `CC1(C)O[C@@H]2C[C@H]3[C@@H]4C[C@H](F)C5=CC(=O)C=C[C@]5(C)[C@@]4(F)[C@@H](O)C[C@]3(C)[C@]2(C(=O)CO)O1` [Fluocinolone acetanide, fluocinolone acetonide], the cell numbers was 0.15 × 10^5 cells/dish with BHK-21 cells [2] (0.5 μg/ml, 1 day); 1.16 × 10^5 cells/dish in the assay with BHK-21 cells [2] (0.5 μg/ml, 3 days); 1.66 × 10^5 cells/dish in the assay with BHK-21 cells [2] (0.5 μg/ml, 5 days); 0.15 × 10^5 cells/dish in the assay with BHK-21 cells [2] (1.0 μg/ml, 1 day); 1.04 × 10^5 cells/dish with BHK-21 cells [2] (1.0 μg/ml, 3 days); 1.72 × 10^5 cells/dish with BHK-21 cells [2] (1.0 μg/ml, 5 days). Besides, the cell numbers is 0.15 × 10^5 cells/dish in the assay with BHK-21 cells [2] (5.0 μg/ml, 1 day); 1.02 × 10^5 cells/dish with BHK-21 cells [2] (5.0 μg/ml, 3 days); 1.66 × 10^5 cells/dish with BHK-21 cells [2] (5.0 μg/ml, 5 days); 0.15 × 10^5 cells/dish in the assay with BHK-21 cells [2] (25.0 μg/ml, 1 day); 0.88 × 10^5 cells/dish in the assay with BHK-21 cells [2] (25.0 μg/ml, 3 days); 1.39 × 10^5 cells/dish in the assay with BHK-21 cells [2] (25.0 μg/ml, 5 days). Besides, the cell numbers is listed as 0.12 × 10^5 cells/dish in the assay on BHK-21 cells [2] (50.0 μg/ml, 1 day); 0.71 × 10^5 cells/dish with BHK-21 cells [2] (50.0 μg/ml, 3 days); 1.12 × 10^5 cells/dish with BHK-21 cells [2] (50.0 μg/ml, 5 days); 0.97 × 10^5 cells/dish in the assay on BHK-21 cells [3] (3rd day); 1.22 × 10^5 cells/dish in the assay on BHK-21 cells [3] (5th day). Further, the activity at 0.5 µg/mL in the assay on BHK-21 cells [2] (BHK-21, 24 h, 0.5 μg/ml, 1 day) stood at 107%; in the assay on BHK-21 cells [2] (BHK-21, 72 h, 0.5 μg/ml, 3 days) it was 86.6%; in the assay on BHK-21 cells [2] (BHK-21, 120 h, 0.5 μg/ml, 5 days) it was 75.8%. Besides, the activity at 1 µg/mL in the assay on BHK-21 cells [2] (BHK-21, 24 h, 1.0 μg/ml, 1 day) was found to be 107%; in the assay with BHK-21 cells [2] (BHK-21, 72 h, 1.0 μg/ml, 3 days) it was 77.6%; in the assay on BHK-21 cells [2] (BHK-21, 120 h, 1.0 μg/ml, 5 days), 78.5%. The activity at 5 µg/mL was 107% in the assay on BHK-21 cells [2] (BHK-21, 24 h, 5.0 μg/ml, 1 day); 76.1% in the assay on BHK-21 cells [2] (BHK-21, 72 h, 5.0 μg/ml, 3 days); 75.8% in the assay with BHK-21 cells [2] (BHK-21, 120 h, 5.0 μg/ml, 5 days). Besides, the activity at 25 µg/mL amounted to 107% in the assay with BHK-21 cells [2] (BHK-21, 24 h, 25.0 μg/ml, 1 day); 65.7% with BHK-21 cells [2] (BHK-21, 72 h, 25.0 μg/ml, 3 days); 63.5% in the assay on BHK-21 cells [2] (BHK-21, 120 h, 25.0 μg/ml, 5 days). Further, the activity at 50 µg/mL with BHK-21 cells [2] (BHK-21, 24 h, 50.0 μg/ml, 1 day) is 85.7%; in the assay with BHK-21 cells [2] (BHK-21, 72 h, 50.0 μg/ml, 3 days), 53%; in the assay with BHK-21 cells [2] (BHK-21, 120 h, 50.0 μg/ml, 5 days), 51.1%. In addition, the “growth of incubated mouse fibroblasts” value in the assay on mouse fibroblasts is “inhibited growth”.

On to EGF: epidermal growth factor, for which the “saturation density of the cells” value in assay [1] is “increased the saturation density of the cells”.

Take cholera toxin: the “stimulating activity on epidermal cell growth” value with epidermal cell is recorded as “marked stimulating activity”.

The values above are taken from patent publication US4604234A, “Protein having cell growth stimulating action, composition thereof and method for producing the same” (priority 1983, dated 1986).
